The values below come from article PMC7692329, “Inhibitory Effect of AB-PINACA, Indazole Carboxamide Synthetic Cannabinoid, on Human Major Drug-Metabolizing Enzymes and Transporters” (Pharmaceutics, 2020).

The IC50 is the midpoint of a concentration-inhibition curve. A word on the kinact: it is the rate constant of inactivation at saturating inhibitor.

Where two headings read alike, the source gives them in different places.

For one data set, the target named is T1, OCT1 (Homo sapiens, UniProt O15245).
T1 construct: host or cells: HEK293
T1 sequence (O15245 1-554): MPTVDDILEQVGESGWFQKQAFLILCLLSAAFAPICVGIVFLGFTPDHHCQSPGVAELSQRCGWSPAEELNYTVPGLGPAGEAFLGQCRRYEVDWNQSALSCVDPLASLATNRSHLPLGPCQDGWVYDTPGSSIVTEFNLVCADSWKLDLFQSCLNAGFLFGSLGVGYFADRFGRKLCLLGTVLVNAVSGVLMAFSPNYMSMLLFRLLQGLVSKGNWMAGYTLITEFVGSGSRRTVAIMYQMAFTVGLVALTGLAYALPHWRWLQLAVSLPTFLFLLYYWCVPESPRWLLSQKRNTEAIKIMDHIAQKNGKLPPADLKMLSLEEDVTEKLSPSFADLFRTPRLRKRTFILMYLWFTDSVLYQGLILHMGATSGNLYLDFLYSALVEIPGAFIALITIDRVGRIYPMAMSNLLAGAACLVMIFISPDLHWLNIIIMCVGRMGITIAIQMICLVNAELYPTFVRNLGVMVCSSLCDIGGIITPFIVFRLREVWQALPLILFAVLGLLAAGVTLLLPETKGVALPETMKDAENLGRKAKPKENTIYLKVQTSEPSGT
Kind of data set: OCT1-mediated methyl-4-phenylpyridinium uptake in HEK293-OCT1 cells. The data set is classed as in vitro ADME.

The target in another data set is T2, OAT1 (Homo sapiens, UniProt Q4U2R8).
T2 construct: host or cells: HEK293
As to the kind of experiment: OAT1-mediated para-aminohippuric acid uptake in HEK293-OAT1 cells. It is filed as in vitro ADME.

On the set-up of data set [1]: method as in PMID 26105953. Conditions: cited from earlier work.
In the next data set the target is CYP2D6 (Homo sapiens, UniProt P10635). Kind of data set: CYP2D6 bufuralol 1'-hydroxylase inhibition in ultrapooled human liver microsomes. Background: Microsomes from liver hold many membrane-bound enzymes, among them those of drug oxidation.
A further data set deals with CYP2C19 (Homo sapiens, UniProt P33261). As to the kind of experiment: CYP2C19 [S]-mephenytoin 4'-hydroxylase inhibition in ultrapooled human liver microsomes. Conditions: for IC50: CYP2C19 [S]-mephenytoin 4'-hydroxylase, ultrapooled human liver microsomes.
In a further data set the target is CYP3A4 (Homo sapiens, UniProt P08684). Kind of data set: CYP3A4 midazolam 1'-hydroxylase inhibition and inactivation kinetics in ultrapooled human liver microsomes. The conditions noted are these: for IC50: CYP3A4 midazolam 1'-hydroxylase, ultrapooled human liver microsomes.
Setting [2] is: IC50 With NADPH Preincubation, 30-min preincubation with NADPH.
Where [3] appears, read: IC50 Without NADPH Preincubation, without NADPH preincubation.
Setting [4] is: human, liver microsomes, pH 7.4, probe midazolam.

Chain of CYP3A4 (P08684 whole entry): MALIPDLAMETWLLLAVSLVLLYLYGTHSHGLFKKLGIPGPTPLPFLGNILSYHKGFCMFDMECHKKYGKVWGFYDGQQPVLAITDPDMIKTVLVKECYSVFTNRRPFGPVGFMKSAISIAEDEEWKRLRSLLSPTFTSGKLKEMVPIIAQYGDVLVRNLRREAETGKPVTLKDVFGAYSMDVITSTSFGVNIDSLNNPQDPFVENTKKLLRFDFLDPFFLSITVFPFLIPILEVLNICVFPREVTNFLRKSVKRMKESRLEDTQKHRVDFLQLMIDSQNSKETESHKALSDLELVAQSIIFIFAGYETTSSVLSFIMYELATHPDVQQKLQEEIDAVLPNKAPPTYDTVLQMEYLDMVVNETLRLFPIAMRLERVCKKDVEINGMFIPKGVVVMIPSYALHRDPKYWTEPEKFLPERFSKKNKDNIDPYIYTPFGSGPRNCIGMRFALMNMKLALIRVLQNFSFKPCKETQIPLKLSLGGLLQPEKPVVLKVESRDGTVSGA
Chain of CYP2C19 (P33261 whole entry): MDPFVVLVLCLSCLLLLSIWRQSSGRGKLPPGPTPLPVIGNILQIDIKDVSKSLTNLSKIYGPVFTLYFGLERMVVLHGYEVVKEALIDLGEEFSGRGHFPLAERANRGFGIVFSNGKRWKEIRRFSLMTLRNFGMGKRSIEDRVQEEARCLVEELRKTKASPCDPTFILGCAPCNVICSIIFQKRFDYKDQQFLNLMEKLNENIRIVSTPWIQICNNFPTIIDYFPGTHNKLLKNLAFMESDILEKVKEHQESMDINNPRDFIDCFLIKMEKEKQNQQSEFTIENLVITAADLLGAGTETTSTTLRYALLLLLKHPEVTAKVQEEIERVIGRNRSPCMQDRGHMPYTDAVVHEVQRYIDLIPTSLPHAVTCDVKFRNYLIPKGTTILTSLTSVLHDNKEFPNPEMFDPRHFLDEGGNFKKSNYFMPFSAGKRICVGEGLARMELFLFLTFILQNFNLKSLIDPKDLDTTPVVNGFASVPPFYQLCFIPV
Chain of CYP2D6 (P10635 whole entry): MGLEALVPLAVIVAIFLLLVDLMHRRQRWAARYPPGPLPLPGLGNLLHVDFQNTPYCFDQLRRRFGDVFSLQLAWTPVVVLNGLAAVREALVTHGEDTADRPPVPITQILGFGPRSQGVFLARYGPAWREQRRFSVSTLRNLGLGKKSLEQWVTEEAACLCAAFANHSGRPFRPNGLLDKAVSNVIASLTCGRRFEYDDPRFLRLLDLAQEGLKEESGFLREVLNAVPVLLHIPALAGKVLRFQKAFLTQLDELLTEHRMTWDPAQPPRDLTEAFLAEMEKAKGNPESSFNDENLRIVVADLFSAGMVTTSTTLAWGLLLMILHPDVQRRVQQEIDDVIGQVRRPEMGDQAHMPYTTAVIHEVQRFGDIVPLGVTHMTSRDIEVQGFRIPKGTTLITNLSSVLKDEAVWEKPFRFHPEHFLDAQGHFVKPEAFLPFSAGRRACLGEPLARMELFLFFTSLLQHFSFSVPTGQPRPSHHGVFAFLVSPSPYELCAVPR
T2 sequence (Q4U2R8 whole entry): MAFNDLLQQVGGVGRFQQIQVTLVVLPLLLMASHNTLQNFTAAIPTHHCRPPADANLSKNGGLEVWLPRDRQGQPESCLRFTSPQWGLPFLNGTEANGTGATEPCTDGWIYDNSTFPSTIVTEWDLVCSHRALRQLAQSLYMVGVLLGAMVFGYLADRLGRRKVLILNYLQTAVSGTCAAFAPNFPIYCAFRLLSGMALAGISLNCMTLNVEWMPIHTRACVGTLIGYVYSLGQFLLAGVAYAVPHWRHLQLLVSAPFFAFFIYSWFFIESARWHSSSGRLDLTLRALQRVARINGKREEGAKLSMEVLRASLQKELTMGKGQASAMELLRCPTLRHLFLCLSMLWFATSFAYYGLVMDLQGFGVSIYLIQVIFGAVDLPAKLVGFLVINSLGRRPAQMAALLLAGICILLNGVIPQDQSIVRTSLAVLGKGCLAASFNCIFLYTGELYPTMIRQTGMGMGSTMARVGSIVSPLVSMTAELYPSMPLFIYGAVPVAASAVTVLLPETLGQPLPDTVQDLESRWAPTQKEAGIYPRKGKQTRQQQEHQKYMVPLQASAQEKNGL

Turning to `CCCCCn1nc(C(=O)N[C@H](C(N)=O)C(C)C)c2ccccc21` [AB-PINACA, N-[(2S)-1-amino-3-methyl-1-oxobutan-2-yl]-1-pentyl-1H-indazole-3-carboxamide], the IC50 was 136 µM against OCT1; over 250 µM on OAT1; over 100 µM on CYP2D6; over 100 µM at CYP2D6 (read-out: IC50 With NADPH Preincubation, CYP2D6 bufuralol 1'-hydroxylase, ultrapooled human liver microsomes, 30-min preincubation with NADPH); 23 µM against CYP2C19 (setting [2]); 20 µM at CYP2C19 (setting [3]). Further, the IC50 is 24.4 µM on CYP3A4 (setting [2]) and 66.4 µM on CYP3A4 (setting [3]). Further, the Ki stood at 146 µM at OCT1; 6.7 µM on CYP2C19 (Ki, CYP2C19, [S]-mephenytoin 4'-hydroxylation, human liver microsomes, Lineweaver–Burk and Dixon plots); 17.6 µM at CYP3A4. Further, the “Mode of Inhibition, OCT1” value on OCT1 (methyl-4-phenylpyridinium uptake, HEK293-OCT1 cells) was “mixed mode of inhibition”. The “substitution for Δ9-THC” value in data set [1] is “substituted fully and dose dependently”. Further, the IC50 shift at 15 min was determined as 0.9 at CYP2C19 (human, liver microsomes, pH 7.4, probe [S]-mephenytoin) and 2.7 on CYP3A4 (setting [4]). Also, the kinact at CYP3A4 (setting [4]) is 0.000674 s⁻¹. Moreover, at CYP3A4 (midazolam 1'-hydroxylation, human liver microsomes), the “Mode of Inhibition, CYP3A4” value is “time-dependent inhibition”.
